In general, IC50 refers to the concentration at which inhibition is half-maximal.

We go through 2 molecules from paper PMC7613620, “Reaction hijacking of tyrosine tRNA synthetase as a whole-of-life-cycle antimalarial strategy” (Science (New York, N.Y.), 2022).

Test [1] relates to protein translation in P. falciparum (Cam3.II-rev) schizonts. In words: Protein translation assay (O-propargyl-puromycin incorporation). To be noted: schizont stage Cam3.II-rev, 1 h pre-incubation then OPP incorporation over next 2 h; read-out: IC50 (Translation). The class given is cell-based, Plasmodium falciparum. The method, then:
723 then fixed for 10 minutes (4% formaldehyde/0.02% glutaraldehyde in PBS). The click reaction was
724 performed for 1 h in the presence of CuSO4 (0.1 mM), THPTA (0.5 mM) and sodium ascorbate (5 mM) to
725 bring about azide-alkyne cycloaddition to Alexa Fluor 488 azide (0.1 µM). Flow cytometry was performed
726 using the FITC and Cy™5.5 channels to detect the Alexa Fluor 488 and PI, respectively.
729 Cam 3.II_Rev (25) trophozoite-infected RBCs (25-30 h p.i.) were incubated with inhibitor for 3 h at 10%
730 hematocrit and 5% parasitemia. The RBC pellet was washed 3 x in PBS + cOmplete. Cells were centrifuged
731 at 380 x g for 5 min and the pelleted cells lysed by resuspension in PBS + 0.05% saponin for 5 min on ice.

Test [2] deals with P. falciparum (Cam3.II-rev) schizont stage. In words: 3 h drug pulse viability assay. The class given is cell-based, Plasmodium falciparum. The note with it: schizont stage Cam3.II-rev, 3 h exposure, viability at trophozoite stage of next cycle; read-out: IC50 (Viability). Here is the method:
553 Sigma-Aldrich) for 48-72 h. For drug pulse assays, tightly synchronized parasites (1-1.5% parasitemia,
554 0.2% final hematocrit) were added to the plates and incubated for 3 h. Drugs were removed and the
555 parasitemia assessed in the trophozoite stage of the next cycle.
557 Compounds were tested against a range of drug resistant field isolates and laboratory strains using a
558 modified [3H]-hypoxanthine incorporation assay, as previously reported (46). Field isolates 7G8, Cam3.1,
559 Dd2, K1, TM90C2B and NF54 were obtained from MR4 (www.beiresources.org).
561 Mammalian cell culture experiments
562 The HepG2 (Human hepatocyte carcinoma) cell line was procured from ATCC (American Type
563 Culture Collection, Manassas, USA; HB-8065) and viability assessed using Cell Titer-GLO luminescent
564 cell viability assay reagents (Promega, catalogue number: G7570) (47, 48). For the assay, 2000 cells/well
565 were plated in 384-well plates 24 h prior to the experiment and incubated at 37°C in a CO2 incubator. The
566 medium was removed and cells were treated with fresh medium containing either vehicle (0.5% DMSO)
567 or serially diluted test compounds or doxorubicin (1.3 nM to 25 µM) in a final volume of 50 µl/well and
568 further incubated for 72 h at 37°C in a CO2 incubator.
569 were treated with 5 µl of 1% Triton X-100 (final assay conc. 0.1%). Following incubation, 25 µl of medium
570 was discarded and 25 µl of Cell Titer-GLO reagent was added to each well and the plate was kept on a plate
571 shaker for 15 min at 25°C with shaking at 300 rpm. Luminescence signals were measured in a Spectramax
572 M5 reader (Molecular Devices).
574 H1650 is a human lung cancer derived ATG7-null cell line (49) that can be used to assess effects on targets
576 adenocarcinoma; bronchoalveolar carcinoma). Other cells lines used are: H460 (NCI-H460; human lung;
577 carcinoma; large cell lung cancer; ATCC: HTB-177); and HCT116 (human colon; colorectal carcinoma;
578 ATCC: CCL-247; Lot : 5056139). […]
580 inhibitors and cell viability was assessed by comparing the ATP content in compound-treated wells with […]

The target of test [3] is T1, HsYRS (Homo sapiens, UniProt P54577).
T1 construct: made in house; host or cells: E. coli BL21(DE3), pET-11a
T1 sequence (P54577 1-364): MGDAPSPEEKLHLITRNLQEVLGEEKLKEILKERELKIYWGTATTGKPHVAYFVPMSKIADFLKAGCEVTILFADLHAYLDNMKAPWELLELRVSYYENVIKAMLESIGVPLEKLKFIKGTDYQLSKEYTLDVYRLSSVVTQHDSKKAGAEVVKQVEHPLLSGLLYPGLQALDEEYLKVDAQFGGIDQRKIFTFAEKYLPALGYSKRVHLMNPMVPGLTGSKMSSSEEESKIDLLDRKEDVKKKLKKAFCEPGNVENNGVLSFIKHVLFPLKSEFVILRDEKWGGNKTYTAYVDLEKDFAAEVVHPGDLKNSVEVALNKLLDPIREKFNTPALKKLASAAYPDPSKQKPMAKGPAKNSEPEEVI
The experiment in a line: Differential scanning fluorimetry, HsYRS. The class given is binding. The method, then:
This DNA template and its complementary strand were custom-synthesized by Sigma-
(§1) 810 (HiScribe™ T7 Quick High Yield RNA Synthesis Kit, NEB). On the following day, the reaction mixture
(§2) 820 was sealed and analysed using StepOnePlus Real-Time PCR system (Applied Biosystems). The samples
The thermal unfolding curve was plotted
The melting temperature (Tm), defined as the
Reactions were conducted in 50 mM Tris-
Reactions were conducted in 50 mM Tris-HCL, pH 7.6,
Background: DSF heats the sample and reads unfolding from a dye or from intrinsic fluorescence.

The target in test [4] is PfYRS (Plasmodium falciparum, UniProt Q8IAR7). In words: biochemical. In kind it is binding. The method, then:
(§3) 804 An intron was detected in the PftRNATyr sequence, that was not indicated in PlasmoDB. A T7 RNA
(§4) 805 polymerase promoter sequence was added to the 5’ end of the DNA sequence of P. falciparum and H.
(§5) 806 sapiens tRNATyr. This DNA template and its complementary strand were custom-synthesized by Sigma-
(§6) 807 Aldrich. Two oligonucleotides were annealed at 95°C for 5 min and the double-stranded DNA template
(§7) 808 was used for in vitro transcription. The transcription reaction was incubated at 37°C overnight. The reaction
(§8) 809 mixture consists of template DNA, T7 RNA polymerase and NTP mix as per manufacturer's instructions
as §1
(§9) 811 was treated with DNase I at 37°C for 15 min. tRNA was purified using RNA clean-up spin columns
(§10) 812 (Monarch® RNA Cleanup Kit, NEB) to remove contaminants from the transcription reaction.
(§11) 814 Differential scanning fluorimetry (DSF)
(§12) 815 PfYRS and HsYRS at 0.1 mg/ml were incubated with various substrates at 37°C for 1-3 h. PfYRS was
(§13) 816 assayed in 25 mM Tris, pH 8, 150 mM NaCl, 5 mM MgCl2 and 1 mM TCEP. HsYRS was assayed in 50
(§14) 817 mM Tris, pH 7.5, 150 mM NaCl, 50 mM KCl, 5 mM MgCl2 and 1 mM TCEP. SYPRO Orange (Sigma-
(§15) 818 Aldrich; 5,000X concentrate in DMSO) was added to the reaction mixture at a final concentration of 2.5X.
(§16) 819 25 µL of the sample was added into each well of a 96-well qPCR plate (Applied Biosystems). The plate
as §2
(§17) 821 were heated from 20°C to 90°C with a 1% continuous gradient. The thermal unfolding curve was plotted
(§18) 822 as the first derivative curve of the raw fluorescence values. The melting temperature (Tm), defined as the
(§19) 823 peak of the first derivative curve, was used to assess the thermal stability of protein-ligand complexes. KD
(§20) 824 values were calculated from DTm using the equation: ln(KD/[L]) = -131.5 x (∆Tm/Tm,apo) - 1.9, where [L]
(§21) 825 is the concentration of ligand and T is the temperature in Kelvin (40). […]

Test [5] concerns the target PfYRSS234C (Plasmodium falciparum, UniProt Q8IAR7, S234C). The experiment in a line: biochemical. In kind it is binding. Here is the method:
as §3, §4, §5, §6, §7, §8, §1, §9, §10, §11, §12, §13, §14, §15, §16, §2, §17, §18, §19, §20, §21

Molecules are shown by their SMILES.

Chain of PfYRSS234C (Q8IAR7 whole entry S234C): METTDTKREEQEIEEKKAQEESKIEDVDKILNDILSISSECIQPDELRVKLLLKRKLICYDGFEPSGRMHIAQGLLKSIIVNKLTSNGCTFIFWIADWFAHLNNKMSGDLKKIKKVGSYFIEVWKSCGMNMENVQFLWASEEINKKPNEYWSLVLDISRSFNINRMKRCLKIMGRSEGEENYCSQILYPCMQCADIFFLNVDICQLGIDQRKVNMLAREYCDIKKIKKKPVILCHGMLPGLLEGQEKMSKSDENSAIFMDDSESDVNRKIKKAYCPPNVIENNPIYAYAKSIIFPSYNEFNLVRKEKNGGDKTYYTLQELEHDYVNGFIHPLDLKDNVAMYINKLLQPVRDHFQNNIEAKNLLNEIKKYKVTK
Chain of PfYRS (Q8IAR7 entry or part of it): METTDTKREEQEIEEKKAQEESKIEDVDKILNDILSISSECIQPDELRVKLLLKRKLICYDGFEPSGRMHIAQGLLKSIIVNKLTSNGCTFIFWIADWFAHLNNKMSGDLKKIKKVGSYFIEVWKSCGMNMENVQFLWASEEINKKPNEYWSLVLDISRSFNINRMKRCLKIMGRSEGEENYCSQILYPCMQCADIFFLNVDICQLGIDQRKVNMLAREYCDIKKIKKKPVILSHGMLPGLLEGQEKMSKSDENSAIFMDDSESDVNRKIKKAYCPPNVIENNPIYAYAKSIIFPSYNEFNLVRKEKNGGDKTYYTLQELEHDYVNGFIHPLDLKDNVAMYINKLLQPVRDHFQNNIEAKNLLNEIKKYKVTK

With `CC1(C)N=C(N)N=C(N)N1OCCCOc1cc(Cl)c(Cl)cc1Cl` [WR99210], the values for the IC50 in test [1] and in test [2] were greater than 1000 nM and 1.9 nM, respectively.
Turning to `Nc1ncnc2c1ncn2[C@@H]1O[C@H](COP(=O)(O)OC(=O)[C@@H](N)Cc2ccc(O)cc2)[C@@H](O)[C@H]1O` [AMP-Tyr], the Tm stood at 53.3 ± 0.2 oC in test [3] (HsYRS 2.3 μM, after incubation at 37°C for 3 h); 62.6 ± 0.2 oC in test [4] (PfYRS 2.3 μM, after incubation at 37°C for 3 h); 57.1 ± 0.3 oC in test [5] (PfYRSS234C 2.3 μM, after incubation at 37°C for 3 h). Besides, the DTm in test [3] (HsYRS, versus apo) is 2.8 oC; in test [4] (PfYRS, versus apo), 12.4 oC; in test [5] (PfYRSS234C, versus apo), 6.5 oC. In addition, the Kd in test [3] (HsYRS, estimated from DSF by empirical correlation of DTm and KD, read-out: Apparent KD*) was 116 nM; in test [4] (PfYRS, estimated from DSF by empirical correlation of DTm and KD, read-out: Apparent KD*), 2.2 nM; in test [5] (PfYRSS234C, estimated from DSF by empirical correlation of DTm and KD, read-out: Apparent KD*), 24 nM.
